Drawing on BindingDB's records for doi:10.1021/jm00018a011 (Pfizer, 1995), this text covers IC50 for 14 molecules.

The test concerns the target Platelet-activating factor receptor (Oryctolagus cuniculus). The test can be described thus: Antagonistic activity was tested against Platelet-Activating Factor-induced aggregation of rabbit washed platelets.
As a reminder, the IC50 is the concentration at which inhibition is half-maximal. A low value points to inhibition by little substance. For `Cc1nc2cnccc2n1-c1ccc(C2=Nc3ccccc3N(C)C(=O)C2)cc1` [1-Methyl-4-[4-(2-methyl-imidazo[4,5-c]pyridin-1-yl)-phenyl]-1,3-dihydro-benzo[b][1,4]diazepin-2-one], the midpoint of inhibition, the IC50, lay at 4.9 nM. For `Cc1nc2cnccc2n1-c1ccc(-c2cc(=O)n3[nH]ccc3n2)cc1` [5-[4-(2-Methyl-imidazo[4,5-c]pyridin-1-yl)-phenyl]-4H-pyrazolo[1,5-a]pyrimidin-7-one], the IC50 came out at 2800 nM. The same measure for `Cc1nc2cnccc2n1-c1ccc(-c2nnc(-c3ccccc3)o2)cc1` [2-Methyl-1-[4-(5-phenyl-[1,3,4]oxadiazol-2-yl)-phenyl]-1H-imidazo[4,5-c]pyridine]: 44 nM.

`Cc1nc2cnccc2n1-c1ccc(C2CC(=O)N(C)c3cc(Cl)c(Cl)cc3C2)cc1` (centres undefined) [7,8-Dichloro-1-methyl-4-[4-(2-methyl-imidazo[4,5-c]pyridin-1-yl)-phenyl]-1,3,4,5-tetrahydro-benzo[b]azepin-2-one] displayed an IC50 of 0.5 nM.

In turn, `Cc1nc2cnccc2n1-c1ccccc1` [2-Methyl-1-phenyl-1H-imidazo[4,5-c]pyridine] had an IC50 of 840 nM. For `Cc1cc2c(cc1C)NC(=O)CC(c1ccc(-n3c(C)nc4cnccc43)cc1)=N2` [7,8-Dimethyl-4-[4-(2-methyl-imidazo[4,5-c]pyridin-1-yl)-phenyl]-1,3-dihydro-benzo[b][1,4]diazepin-2-one] the value was 0.7 nM.

In turn, `Cc1nc2cnccc2n1-c1ccc(I)cc1` [1-(4-Iodo-phenyl)-2-methyl-1H-imidazo[4,5-c]pyridine] displayed an IC50 of 67 nM. For `Cc1cc2c(cc1C)NC(=S)CC(c1ccc(-n3c(C)nc4cnccc43)cc1)=N2` [7,8-Dimethyl-4-[4-(2-methyl-imidazo[4,5-c]pyridin-1-yl)-phenyl]-1,3-dihydro-benzo[b][1,4]diazepine-2-thione] the value was 0.6 nM; for `Cc1nc2cnccc2n1-c1ccc(C2=NC3CCCCC3NC(=O)C2)cc1` (centres undefined) [4-[4-(2-Methyl-imidazo[4,5-c]pyridin-1-yl)-phenyl]-1,5,5a,6,7,8,9,9a-octahydro-benzo[b][1,4]diazepin-2-one], 200 nM; for `Cc1nc2cnccc2n1-c1ccc(C2=Nc3ccccc3C(=O)CC2)cc1` [2-[4-(2-Methyl-imidazo[4,5-c]pyridin-1-yl)-phenyl]-1,4-dihydro-benzo[b]azepin-5-one], 15 nM. Molecule `Cc1cc2c(cc1C)N=C(c1ccc(-n3c(C)nc4cnccc43)cc1)CC(N)=N2` [7,8-Dimethyl-4-[4-(2-methyl-imidazo[4,5-c]pyridin-1-yl)-phenyl]-1,3-dihydro-benzo[b][1,4]diazepin-(2E)-ylideneamine] returned an IC50 of 1.9 nM. The same measure for `Cc1nc2cnccc2n1-c1ccc(C2=Nc3cc(Cl)c(Cl)cc3NC(=S)C2)cc1` [7,8-Dichloro-4-[4-(2-methyl-imidazo[4,5-c]pyridin-1-yl)-phenyl]-1,3-dihydro-benzo[b][1,4]diazepine-2-thione]: 0.5 nM; for `Cc1nc2cnccc2n1-c1ccc(C2CC(=O)Nc3cc(Cl)c(Cl)cc3C2)cc1` (centres undefined) [7,8-Dichloro-4-[4-(2-methyl-imidazo[4,5-c]pyridin-1-yl)-phenyl]-1,3,4,5-tetrahydro-benzo[b]azepin-2-one]: 0.5 nM; for `Cc1nc2cnccc2n1-c1ccc(C2=NCCNC(=O)C2)cc1` [7-[4-(2-Methyl-imidazo[4,5-c]pyridin-1-yl)-phenyl]-1,2,3,4-tetrahydro-[1,4]diazepin-5-one]: 2600 nM.
